In PubChem BioAssay (NCI) one finds GI50 and TGI data, which are given here for 11 compounds.

SMILES strings stand for the structures.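 Briefly, cells in 96-well plates were exposed to five compound concentrations for 48 h, and endpoints were estimated by linear interpolation. GI50: concentration for 50% inhibition of growth. At the TGI there is no net growth.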 Bounds are passed on as bounds.

Test systems include RPMI-8226 leukemia; EKVX NSCLC; BT-549 breast; HOP-92 NSCLC; CAKI-1 renal; SF-295 CNS; NCI-H522 lung; SK-OV-3 ovarian; OVCAR-3 ovarian; SR leukemia.
Holding throughout (assay): growth of human tumour cells (NCI), 48 h

Consider `N/C(=N/N=C/c1ccccc1)N/N=C\c1ccccc1`, for which the GI50 is 5.21 µM in the assay with RPMI-8226 leukemia; 7.59 µM in the assay with EKVX NSCLC; 7.2 µM in the assay on BT-549 breast; 2.52 µM in the assay with HOP-92 NSCLC; 5.02 µM in the assay on CAKI-1 renal; 3.96 µM with SF-295 CNS. The GI50 in the assay on NCI-H522 lung was 5.23 µM; in the assay with SK-OV-3 ovarian it was 6.37 µM; in the assay on OVCAR-3 ovarian it was 2.66 µM. The TGI is 29.7 µM in the assay with RPMI-8226 leukemia; over 100 µM in the assay with EKVX NSCLC; 46.4 µM in the assay on BT-549 breast; 42.2 µM in the assay on HOP-92 NSCLC; over 100 µM in the assay with CAKI-1 renal; 32.4 µM in the assay on SF-295 CNS. Further, the values for the TGI in the assay on NCI-H522 lung, with SK-OV-3 ovarian and in the assay with OVCAR-3 ovarian were over 100 µM, over 100 µM and 7.8 µM, respectively.

For `O=C(OC1CCC2OOC1O2)c1ccc([N+](=O)[O-])cc1` (stereo unspecified), the TGI in the assay with RPMI-8226 leukemia, in the assay on EKVX NSCLC, in the assay on CAKI-1 renal, with SF-295 CNS, in the assay with NCI-H522 lung and with SK-OV-3 ovarian was over 100 µM throughout. The TGI with OVCAR-3 ovarian and with SR leukemia was over 100 µM each time.

As to `N#CCCCCCOCCOCCOCCOCCOCCCCCC#N`, the TGI with EKVX NSCLC, in the assay on CAKI-1 renal, in the assay on SF-295 CNS, in the assay with NCI-H522 lung, in the assay with SK-OV-3 ovarian and in the assay with OVCAR-3 ovarian was over 100 µM throughout. Moreover, the TGI in the assay with SR leukemia was over 100 µM.

Consider `O=C(NCc1cccnc1)C1COc2cc(-c3cc(=O)c4ccccc4o3)ccc2O1` (stereo unspecified), for which the TGI is over 100 µM with RPMI-8226 leukemia; over 100 µM with EKVX NSCLC; over 100 µM in the assay on HOP-92 NSCLC; over 84.3 µM in the assay with CAKI-1 renal; over 69.8 µM with SF-295 CNS; over 100 µM with NCI-H522 lung. The TGI in the assay with SK-OV-3 ovarian, in the assay on OVCAR-3 ovarian and with SR leukemia was over 100 µM each time.

With `CC1(Br)CC2OC3(Br)C=CC(C)(O)C2(CC1=O)C3(C)C` (stereo unspecified), the TGI with RPMI-8226 leukemia, in the assay with EKVX NSCLC, in the assay on HOP-92 NSCLC, in the assay with CAKI-1 renal, in the assay with SF-295 CNS and in the assay on NCI-H522 lung was over 100 µM in each case. Further, the TGI in the assay with SK-OV-3 ovarian, in the assay with OVCAR-3 ovarian and in the assay with SR leukemia was over 100 µM throughout.

Take `CC[C@@]1(O)C(=O)OCc2c1cc1n(c2=O)Cc2cc3cccc([N+](=O)[O-])c3nc2-1`: the GI50 in the assay on RPMI-8226 leukemia is 1.71 µM; in the assay with EKVX NSCLC, 96.9 µM; in the assay with HOP-92 NSCLC, 8.45 µM; in the assay with SF-295 CNS, 0.346 µM; with NCI-H522 lung it was 1.04 µM; in the assay on SK-OV-3 ovarian, 0.501 µM. For the same compound, the GI50 in the assay with OVCAR-3 ovarian is 4.92 µM. Further, the TGI with RPMI-8226 leukemia is 64.5 µM; in the assay with EKVX NSCLC, over 100 µM; with HOP-92 NSCLC, 50.8 µM; with SF-295 CNS, 16 µM; in the assay on NCI-H522 lung, 23.3 µM; in the assay on SK-OV-3 ovarian it was 17.1 µM. Besides, the TGI in the assay with OVCAR-3 ovarian is 43.5 µM.

As to `Cc1ccc(NC(=O)c2cc3ccccc3c(N=Nc3cc(S(=O)(=O)O)ccc3O)c2O)c(C)c1`, the TGI is over 100 µM with RPMI-8226 leukemia; over 100 µM in the assay with EKVX NSCLC; over 100 µM in the assay with BT-549 breast; over 100 µM in the assay with HOP-92 NSCLC; over 100 µM in the assay with CAKI-1 renal; 88.9 µM with SF-295 CNS. The TGI with NCI-H522 lung, in the assay on SK-OV-3 ovarian and in the assay on OVCAR-3 ovarian was over 100 µM each time.

As for `COc1ccc2c(c1)oc(=O)c1cc(OC)ccc12`, the GI50 with RPMI-8226 leukemia is over 100 µM; with EKVX NSCLC, 8.99 µM; in the assay with BT-549 breast it was over 100 µM; with HOP-92 NSCLC it was over 100 µM; with CAKI-1 renal it was over 100 µM; in the assay on SF-295 CNS, over 100 µM. The GI50 with NCI-H522 lung, in the assay on SK-OV-3 ovarian and in the assay with OVCAR-3 ovarian was over 100 µM in each case. Also, the TGI with RPMI-8226 leukemia, in the assay on EKVX NSCLC, in the assay on BT-549 breast, in the assay with HOP-92 NSCLC, in the assay on CAKI-1 renal and in the assay with SF-295 CNS was over 100 µM throughout. Also, the TGI in the assay on NCI-H522 lung, with SK-OV-3 ovarian and in the assay with OVCAR-3 ovarian was over 100 µM each time.

Take `NC1CCCCC1N.O=[Se]([O-])[O-].[Pt+4]` (stereo unspecified): the GI50 is under 0.0336 µM in the assay on RPMI-8226 leukemia; over 35.2 µM in the assay with EKVX NSCLC; 25.3 µM in the assay on HOP-92 NSCLC; 1.08 µM with CAKI-1 renal; 0.304 µM with SF-295 CNS; 0.589 µM with NCI-H522 lung. In addition, the GI50 with SK-OV-3 ovarian was 27.8 µM; with OVCAR-3 ovarian, 17 µM. Further, the TGI is over 37.1 µM with RPMI-8226 leukemia; over 100 µM with EKVX NSCLC; 82.1 µM in the assay with HOP-92 NSCLC; 45.3 µM in the assay on CAKI-1 renal; 21.6 µM with SF-295 CNS; 11.2 µM in the assay with NCI-H522 lung. Also, the TGI with SK-OV-3 ovarian and in the assay with OVCAR-3 ovarian was over 100 µM in each case.

Consider `COc1ccc(Sc2nc3cc(N)cc(N)c3nc2-c2ccccc2)cc1`, for which the GI50 is 3.96 µM in the assay with RPMI-8226 leukemia; 9.71 µM in the assay with CAKI-1 renal; over 100 µM in the assay on SF-295 CNS; 3.2 µM with NCI-H522 lung; 32.9 µM in the assay with SK-OV-3 ovarian. Also, the TGI was 84.4 µM with RPMI-8226 leukemia; over 100 µM in the assay on CAKI-1 renal; over 100 µM with SF-295 CNS; over 100 µM in the assay with NCI-H522 lung; over 100 µM in the assay on SK-OV-3 ovarian.

On to `Cc1ccc(-c2cc3c4c(nc5ccccc53)C(=O)c3cccnc3-c4n2)cc1`, for which the GI50 was 4.18 µM in the assay with RPMI-8226 leukemia; 23.4 µM with EKVX NSCLC; 17.4 µM in the assay with BT-549 breast; 26.5 µM in the assay on HOP-92 NSCLC; 29.7 µM in the assay with CAKI-1 renal; 12.4 µM with SF-295 CNS. For the same compound, the GI50 in the assay with NCI-H522 lung is 5.55 µM; in the assay on SK-OV-3 ovarian, 34.7 µM; in the assay on OVCAR-3 ovarian it was 1.85 µM. For the same compound, the TGI with RPMI-8226 leukemia is 54.9 µM; in the assay on EKVX NSCLC, 59.1 µM; with BT-549 breast, 41 µM; with HOP-92 NSCLC, over 100 µM; in the assay with CAKI-1 renal it was over 100 µM; in the assay on SF-295 CNS, 25.7 µM. For the same compound, the TGI was 21.9 µM in the assay on NCI-H522 lung, over 94.4 µM in the assay on SK-OV-3 ovarian and over 50.1 µM in the assay with OVCAR-3 ovarian.
